Measurements published in article PMC7880572 (ACS Chemical Neuroscience, 2021).

Target: T1, Aβ40 (Homo sapiens, UniProt P05067)
T1 construct: samples of Aβ40 (30 μM) were coincubated for 2 h at 25 °C with test molecules; purchased EzBiolab, Carmel, IN, USA
Test: Inhibition of self-induced Aβ40 aggregation (ThT fluorescence, HFIP)
Format: biochemical
Conditions: Aβ40 30 μM, 2 h at 25 °C, PBS 2% HFIP; mean ± SEM, n = 3; read-out: Aβ40 aggr IC50
Experimental: In vitro inhibition of Aβ40 aggregation was assessed following a previously reported thioflavin T (ThT) fluorescence-based method involving the use of hexafluoroisopropanol (HFIP) as aggregation enhancer. […].
In vitro inhibition assay of Aβ40 aggregation has been previously reported[41] and adapted to a 96-well plate platform.
After incubation in 96-well black, nonbinding microplates (Greiner Bio-One GmbH, Frickenhausen, Germany), thioflavin T (25 μM) was added and fluorimetric reads (ex 440, em 485 nm) were performed in a multiplate reader Infinite M1000 Pro (Tecan, Cernusco sul Naviglio, Italy). Experiments were run in triplicate. Results were expressed by statistical analysis while IC50 values were obtained by nonlinear regression using Prism software (GraphPad Prism version 5.00 for Windows, GraphPad Software, San Diego, CA, USA).

T1 sequence (P05067 672-711 limits assumed): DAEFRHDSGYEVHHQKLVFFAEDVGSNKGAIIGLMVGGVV

In order of falling IC50:
1. O=C1C(Cl)=C(NCCn2cnc3ccccc32)C(=O)c2ccccc21 [Compound 6, 2-[2-(1H-Benzimidazol-1-yl)ethylamino]-3-chloro-1,4-naphthoquinone]  19 ± 4 µM
2. O=C1C(Cl)=C(NC(Cc2ccccc2)C(=O)O)C(=O)c2ccccc21 (centres unmarked) [Compound 8]  17 ± 2 µM
3. O=C1C(Cl)=C(NC(Cc2c[nH]c3ccccc23)C(=O)O)C(=O)c2ccccc21 (centres unmarked) [Compound 9]  14 ± 2 µM
4. O=C1C(Cl)=C(NCCn2nnc3ccccc32)C(=O)c2ccccc21 [Compound 7, 2-{[2-(1H-Benzotriazol-1-yl)ethy]amino}-3-chloro-1,4-naphthoquinone]  8.7 ± 0.4 µM
5. O=C1C(Cl)=C(NCCCc2ccccc2)C(=O)c2ccccc21 [Compound 4, 2-Chloro-3-(phenylpropylamino)-1,4-naphthoquinone]  8.2 ± 0.3 µM
6. O=C1C(Cl)=C(NCCc2c[nH]c3ccccc23)C(=O)c2ccccc21 [Compound 5]  6.6 ± 0.1 µM

Target: T2, eeAChE (AChE from electric eel) (Electrophorus electricus, UniProt O42275)
T2 construct: purchased Sigma-Aldrich, Milan, Italy
T2 sequence (O42275 24-633): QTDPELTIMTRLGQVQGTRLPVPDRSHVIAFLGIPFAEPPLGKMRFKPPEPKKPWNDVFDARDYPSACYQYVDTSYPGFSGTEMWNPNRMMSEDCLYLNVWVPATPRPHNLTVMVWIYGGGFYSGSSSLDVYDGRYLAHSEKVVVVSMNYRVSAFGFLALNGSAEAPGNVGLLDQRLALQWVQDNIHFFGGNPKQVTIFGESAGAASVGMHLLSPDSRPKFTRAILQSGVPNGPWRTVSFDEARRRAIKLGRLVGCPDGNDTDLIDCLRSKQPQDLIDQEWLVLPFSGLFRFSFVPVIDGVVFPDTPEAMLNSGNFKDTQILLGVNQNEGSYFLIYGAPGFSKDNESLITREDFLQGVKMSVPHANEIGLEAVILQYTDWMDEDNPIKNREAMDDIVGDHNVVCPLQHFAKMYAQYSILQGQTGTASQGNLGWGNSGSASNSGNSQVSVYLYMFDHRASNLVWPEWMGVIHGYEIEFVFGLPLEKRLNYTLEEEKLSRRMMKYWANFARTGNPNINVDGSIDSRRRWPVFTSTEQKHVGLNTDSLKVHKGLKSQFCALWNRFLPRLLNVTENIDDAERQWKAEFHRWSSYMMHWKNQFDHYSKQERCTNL
Test: biochemical
Conditions: mean ± SEM, n = 3

In order of rising IC50:
1. O=C1C(Cl)=C(NCCn2nnc3ccccc32)C(=O)c2ccccc21 [Compound 7, 2-{[2-(1H-Benzotriazol-1-yl)ethy]amino}-3-chloro-1,4-naphthoquinone]  1.7 ± 0.1 µM
2. O=C1C(Cl)=C(NCCCc2ccccc2)C(=O)c2ccccc21 [Compound 4, 2-Chloro-3-(phenylpropylamino)-1,4-naphthoquinone]  3.5 ± 0.3 µM
3. O=C1C(Cl)=C(NCCn2cnc3ccccc32)C(=O)c2ccccc21 [Compound 6, 2-[2-(1H-Benzimidazol-1-yl)ethylamino]-3-chloro-1,4-naphthoquinone]  6.8 ± 0.7 µM
4. O=C1C(Cl)=C(NCCc2c[nH]c3ccccc23)C(=O)c2ccccc21 [Compound 5]  8.7 ± 0.8 µM
5. O=C1C(Cl)=C(NC(Cc2c[nH]c3ccccc23)C(=O)O)C(=O)c2ccccc21 (centres unmarked) [Compound 9]  11 ± 1 µM
6. O=C1C(Cl)=C(NC(Cc2ccccc2)C(=O)O)C(=O)c2ccccc21 (centres unmarked) [Compound 8]  13 ± 2 µM

Target: T3, esBChE (BChE from equine serum) (Equus caballus, UniProt P81908)
T3 construct: BChE from horse serum (13 U/mL); purchased Sigma-Aldrich, Milan, Italy; host or cells: horse serum
T3 sequence (P81908 whole entry): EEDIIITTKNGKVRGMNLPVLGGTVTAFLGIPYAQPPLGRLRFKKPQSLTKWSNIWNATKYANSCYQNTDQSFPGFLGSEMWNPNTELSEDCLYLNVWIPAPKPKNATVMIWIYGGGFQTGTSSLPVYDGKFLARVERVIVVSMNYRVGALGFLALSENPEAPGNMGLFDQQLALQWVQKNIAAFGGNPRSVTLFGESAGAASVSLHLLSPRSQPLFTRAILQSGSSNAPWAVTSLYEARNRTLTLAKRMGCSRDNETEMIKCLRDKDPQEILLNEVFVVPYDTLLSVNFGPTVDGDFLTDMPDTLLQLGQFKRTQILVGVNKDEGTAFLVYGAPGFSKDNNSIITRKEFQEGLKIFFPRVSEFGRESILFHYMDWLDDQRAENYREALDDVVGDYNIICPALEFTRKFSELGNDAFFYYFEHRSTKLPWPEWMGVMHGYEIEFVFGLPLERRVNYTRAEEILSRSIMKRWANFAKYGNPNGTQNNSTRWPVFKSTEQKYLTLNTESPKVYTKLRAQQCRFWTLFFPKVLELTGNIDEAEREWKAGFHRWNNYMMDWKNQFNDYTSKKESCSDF
Test: biochemical
Conditions: at 10 μM; mean ± SEM, n = 3

In order of falling inhibition at 10 µM:
1. O=C1C(Cl)=C(NCCCc2ccccc2)C(=O)c2ccccc21 [Compound 4, 2-Chloro-3-(phenylpropylamino)-1,4-naphthoquinone]  35%
2. O=C1C(Cl)=C(NCCc2c[nH]c3ccccc23)C(=O)c2ccccc21 [Compound 5]  29%
3. O=C1C(Cl)=C(NCCn2cnc3ccccc32)C(=O)c2ccccc21 [Compound 6, 2-[2-(1H-Benzimidazol-1-yl)ethylamino]-3-chloro-1,4-naphthoquinone]  24%
4. O=C1C(Cl)=C(NC(Cc2c[nH]c3ccccc23)C(=O)O)C(=O)c2ccccc21 (centres unmarked) [Compound 9]  17%
5. O=C1C(Cl)=C(NCCn2nnc3ccccc32)C(=O)c2ccccc21 [Compound 7, 2-{[2-(1H-Benzotriazol-1-yl)ethy]amino}-3-chloro-1,4-naphthoquinone]  15%
6. O=C1C(Cl)=C(NC(Cc2ccccc2)C(=O)O)C(=O)c2ccccc21 (centres unmarked) [Compound 8]  14%

Target: T4, hMAO A (Homo sapiens, UniProt P21397)
T4 construct: purchased Sigma-Aldrich
T4 sequence (P21397 1-527): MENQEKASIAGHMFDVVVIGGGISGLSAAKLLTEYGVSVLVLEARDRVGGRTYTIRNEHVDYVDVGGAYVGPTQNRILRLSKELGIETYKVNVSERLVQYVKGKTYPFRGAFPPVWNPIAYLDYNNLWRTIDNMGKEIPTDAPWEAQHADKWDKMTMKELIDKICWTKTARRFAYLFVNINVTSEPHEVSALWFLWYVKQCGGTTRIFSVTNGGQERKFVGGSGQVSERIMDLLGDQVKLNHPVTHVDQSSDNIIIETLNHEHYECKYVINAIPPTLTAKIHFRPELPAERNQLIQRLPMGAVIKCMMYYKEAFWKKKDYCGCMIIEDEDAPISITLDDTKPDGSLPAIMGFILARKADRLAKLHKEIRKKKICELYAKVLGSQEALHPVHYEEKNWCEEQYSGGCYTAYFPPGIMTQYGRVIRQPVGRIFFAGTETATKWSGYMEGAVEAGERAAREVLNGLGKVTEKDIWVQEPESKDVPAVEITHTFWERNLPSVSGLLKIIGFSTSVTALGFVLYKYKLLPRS
Test: MAO A inhibition (fluorimetric kynuramine assay)
Format: biochemical
Conditions: at 10 μM; mean ± SEM, n = 3

In order of rising inhibition at 10 µM:
1. O=C1C(Cl)=C(NCCn2nnc3ccccc32)C(=O)c2ccccc21 [Compound 7, 2-{[2-(1H-Benzotriazol-1-yl)ethy]amino}-3-chloro-1,4-naphthoquinone]  21%
2. O=C1C(Cl)=C(NC(Cc2c[nH]c3ccccc23)C(=O)O)C(=O)c2ccccc21 (centres unmarked) [Compound 9]  22%
3. O=C1C(Cl)=C(NCCn2cnc3ccccc32)C(=O)c2ccccc21 [Compound 6, 2-[2-(1H-Benzimidazol-1-yl)ethylamino]-3-chloro-1,4-naphthoquinone]  23%
4. O=C1C(Cl)=C(NC(Cc2ccccc2)C(=O)O)C(=O)c2ccccc21 (centres unmarked) [Compound 8]  26%

Same assay, conditions: mean ± SEM, n = 3

In order of falling IC50:
1. O=C1C(Cl)=C(NCCc2c[nH]c3ccccc23)C(=O)c2ccccc21 [Compound 5]  5 ± 0.2 µM
2. O=C1C(Cl)=C(NCCCc2ccccc2)C(=O)c2ccccc21 [Compound 4, 2-Chloro-3-(phenylpropylamino)-1,4-naphthoquinone]  3 ± 0.2 µM

Target: T5, MAO B (Homo sapiens, UniProt P27338)
T5 construct: purchased Sigma-Aldrich
T5 sequence (P27338 1-520): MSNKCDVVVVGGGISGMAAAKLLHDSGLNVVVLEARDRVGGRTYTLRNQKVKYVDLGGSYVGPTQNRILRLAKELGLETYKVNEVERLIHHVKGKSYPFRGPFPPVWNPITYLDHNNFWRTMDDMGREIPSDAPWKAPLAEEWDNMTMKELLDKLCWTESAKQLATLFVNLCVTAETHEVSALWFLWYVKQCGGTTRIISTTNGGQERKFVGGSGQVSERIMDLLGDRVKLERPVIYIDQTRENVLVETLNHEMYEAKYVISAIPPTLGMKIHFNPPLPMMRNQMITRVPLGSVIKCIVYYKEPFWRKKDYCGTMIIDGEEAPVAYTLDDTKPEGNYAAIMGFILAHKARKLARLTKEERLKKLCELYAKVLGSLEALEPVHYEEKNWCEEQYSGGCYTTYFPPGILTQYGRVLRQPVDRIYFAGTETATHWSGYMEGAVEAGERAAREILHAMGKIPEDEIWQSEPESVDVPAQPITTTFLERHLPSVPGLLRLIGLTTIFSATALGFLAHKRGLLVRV
Test: MAO B inhibition (fluorimetric kynuramine assay, inhibition kinetics)
Format: biochemical
Conditions: at 10 μM; mean ± SEM, n = 3

In order of falling inhibition at 10 µM:
1. O=C1C(Cl)=C(NC(Cc2c[nH]c3ccccc23)C(=O)O)C(=O)c2ccccc21 (centres unmarked) [Compound 9]  52%
2. O=C1C(Cl)=C(NCCn2cnc3ccccc32)C(=O)c2ccccc21 [Compound 6, 2-[2-(1H-Benzimidazol-1-yl)ethylamino]-3-chloro-1,4-naphthoquinone]  24%

Same assay, conditions: mean ± SEM, n = 3

In order of falling IC50:
1. O=C1C(Cl)=C(NC(Cc2ccccc2)C(=O)O)C(=O)c2ccccc21 (centres unmarked) [Compound 8]  2700 ± 800 nM
2. O=C1C(Cl)=C(NCCn2nnc3ccccc32)C(=O)c2ccccc21 [Compound 7, 2-{[2-(1H-Benzotriazol-1-yl)ethy]amino}-3-chloro-1,4-naphthoquinone]  480 ± 80 nM
3. O=C1C(Cl)=C(NCCc2c[nH]c3ccccc23)C(=O)c2ccccc21 [Compound 5]  110 ± 10 nM
4. O=C1C(Cl)=C(NCCCc2ccccc2)C(=O)c2ccccc21 [Compound 4, 2-Chloro-3-(phenylpropylamino)-1,4-naphthoquinone]  54 ± 1 nM

Test system: cerebellar granule cells
Test: In vitro cytotoxicity (MTT)
Format: cell-based
Conditions: CGCs, compound 10 μM, 48 h, mean ± SEM
Experimental: . […] For a more meaningful assessment of the value of the present compounds, the issue of their toxicity, in comparison to established drugs for AD, should deserve further investigation.
Cerebellar granule cells were prepared from 8-day-old Sprague Dawley rats as described previously.[66] Cells were studied from the 6th to the 12th day in vitro. The experimental procedures and care of the animals were performed in compliance with the Directive of the EU Parliament and Council of September 22, 2010 (2010/63/EU) and were approved by the Italian Ministry of Health (COD. 75F11.N.6DX) in accordance with D.M. 116/1992. All efforts were made in order to minimize animal suffering and the number of animals necessary to obtain reliable results.
[…]. Cells were maintained in 5% CO2 at 37 °C. The cell viability was assessed by the MTT assay 48 h after the treatment. […]. The survival rates of viable cells were calculated by comparing the optical absorbance of treated samples with that of the untreated controls. All experiments were repeated at least three times independently, and data are expressed as the mean ± SEM.

For `O=C1C(Cl)=C(NCCc2c[nH]c3ccccc23)C(=O)c2ccccc21` [Compound 5], the “cell viability vs control (%)” value was 85 ± 14%.

Test system: not given
Test: not given
Conditions: based on the PAMPA-BBB classification range from Di et al.

With `O=C1C(Cl)=C(NCCc2c[nH]c3ccccc23)C(=O)c2ccccc21` [Compound 5] the CNS prediction was “CNS+”.
For `O=C1C(Cl)=C(NC(Cc2ccccc2)C(=O)O)C(=O)c2ccccc21` (centres unmarked) [Compound 8], the CNS prediction was “CNS+”.

Test system: not listed separately
Test: in vitro
Conditions: PAMPA, pH 7.4

In order of rising Papp at 16 h:
1. O=C1C(Cl)=C(NC(Cc2ccccc2)C(=O)O)C(=O)c2ccccc21 (centres unmarked) [Compound 8]  6.1 ± 0.4 ×10⁻⁶ cm/s
2. O=C1C(Cl)=C(NCCc2c[nH]c3ccccc23)C(=O)c2ccccc21 [Compound 5]  14.3 ± 1.3 ×10⁻⁶ cm/s
